Results published in PubChem BioAssay (NCI).
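Values below derive from 48-hour exposures of cells grown in 96-well plates, with endpoints linearly interpolated between the two concentrations bracketing the appropriate inhibition level. GI50 is the concentration that inhibits growth by half. TGI: concentration producing complete growth inhibition.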

Key:
Assay in all cases: inhibition of tumour cell growth, NCI panel, 48 h; in the data active = GI50 below about 0.43 µM; inactive = the rest
IGROV1 ovarian = test system: IGROV1 ovarian
T-47D breast = test system: T-47D breast
OVCAR-5 ovarian = test system: OVCAR-5 ovarian
SK-MEL-28 melanoma = test system: SK-MEL-28 melanoma
NCI-H23 lung = test system: NCI-H23 lung
NCI-H522 lung = test system: NCI-H522 lung
SNB-19 CNS = test system: SNB-19 CNS
M14 melanoma = test system: M14 melanoma
HOP-62 NSCLC = test system: HOP-62 NSCLC
K-562 leukemia = test system: K-562 leukemia
SF-295 CNS = test system: SF-295 CNS
OVCAR-8 ovarian = test system: OVCAR-8 ovarian
COLO 205 colon = test system: COLO 205 colon
MDA-MB-435 = test system: MDA-MB-435
CAKI-1 renal = test system: CAKI-1 renal
SN12C renal = test system: SN12C renal
SK-OV-3 ovarian = test system: SK-OV-3 ovarian
NCI/ADR-RES ovarian = test system: NCI/ADR-RES ovarian
PC-3 prostate = test system: PC-3 prostate
RXF 393 renal = test system: RXF 393 renal
A549 NSCLC = test system: A549 NSCLC
UACC-257 melanoma = test system: UACC-257 melanoma
HS 578T breast = test system: HS 578T breast
NCI-H460 lung = test system: NCI-H460 lung
HT29 colon = test system: HT29 colon
SF-539 CNS = test system: SF-539 CNS
OVCAR-4 ovarian = test system: OVCAR-4 ovarian
SF-268 CNS = test system: SF-268 CNS
TK-10 renal = test system: TK-10 renal
MDA-MB-231 breast = test system: MDA-MB-231 breast
CCRF-CEM leukemia = test system: CCRF-CEM leukemia
KM12 colon = test system: KM12 colon
HCT-116 colon = test system: HCT-116 colon
786-0 renal = test system: 786-0 renal
DU-145 prostate = test system: DU-145 prostate
MCF7 breast = test system: MCF7 breast
OVCAR-3 ovarian = test system: OVCAR-3 ovarian
HL-60(TB) leukemia = test system: HL-60(TB) leukemia
RPMI-8226 leukemia = test system: RPMI-8226 leukemia
NCI-H226 lung = test system: NCI-H226 lung
SNB-75 CNS = test system: SNB-75 CNS
UO-31 renal = test system: UO-31 renal
SR leukemia = test system: SR leukemia
U251 CNS = test system: U251 CNS
MALME-3M melanoma = test system: MALME-3M melanoma
HOP-92 NSCLC = test system: HOP-92 NSCLC
ACHN renal = test system: ACHN renal
HCT-15 colon = test system: HCT-15 colon
SK-MEL-5 melanoma = test system: SK-MEL-5 melanoma
SW-620 colon = test system: SW-620 colon
HCC-2998 colon = test system: HCC-2998 colon
EKVX NSCLC = test system: EKVX NSCLC
LOX IMVI melanoma = test system: LOX IMVI melanoma
SK-MEL-2 melanoma = test system: SK-MEL-2 melanoma
UACC-62 melanoma = test system: UACC-62 melanoma

CC(O)CCc1ccc(Oc2c3ccccc3nc3occc23)cc1 (centres undefined)
7.75 µM: TGI (TK-10 renal)
31.9 µM: TGI (HOP-62 NSCLC)
29.6 µM: TGI (SF-268 CNS)
33.8 µM: TGI (U251 CNS)
31.8 µM: TGI (SK-OV-3 ovarian)
9.69 µM: TGI (HL-60(TB) leukemia)
19.6 µM: TGI (OVCAR-8 ovarian)
13.5 µM: TGI (CAKI-1 renal)
31.6 µM: TGI (K-562 leukemia)
24.3 µM: TGI (OVCAR-5 ovarian)
9.28 µM: TGI (SR leukemia)
42.6 µM: TGI (HS 578T breast)
14.4 µM: TGI (UACC-257 melanoma)
10.9 µM: TGI (T-47D breast)
33 µM: TGI (SNB-19 CNS)
28.5 µM: TGI (SNB-75 CNS)
32.2 µM: TGI (DU-145 prostate)
25.1 µM: TGI (SK-MEL-28 melanoma)
17.6 µM: TGI (A549 NSCLC)
8.89 µM: TGI (RXF 393 renal)
17.1 µM: TGI (SF-295 CNS)
9.27 µM: TGI (MCF7 breast)
24.1 µM: TGI (COLO 205 colon)
34.8 µM: TGI (CCRF-CEM leukemia)
14.6 µM: TGI (NCI/ADR-RES ovarian)
> 100 µM: TGI (NCI-H522 lung) | TGI (MDA-MB-231 breast) | TGI (RPMI-8226 leukemia) | TGI (UO-31 renal)
29.5 µM: TGI (SF-539 CNS)
17.9 µM: TGI (M14 melanoma)
16.8 µM: TGI (NCI-H460 lung) | TGI (NCI-H226 lung)
24.2 µM: TGI (SN12C renal)
21.9 µM: TGI (786-0 renal)
74 µM: TGI (OVCAR-4 ovarian)
15.6 µM: TGI (MDA-MB-435) | TGI (HCT-116 colon)
19 µM: TGI (KM12 colon)
26.7 µM: TGI (OVCAR-3 ovarian)
inactive: GI50 (IGROV1 ovarian) 17.7 µM | GI50 (T-47D breast) 1.28 µM | GI50 (OVCAR-5 ovarian) 11.9 µM | GI50 (SK-MEL-28 melanoma) 12.3 µM | GI50 (NCI-H23 lung) 2.41 µM | GI50 (NCI-H522 lung) 19.1 µM | GI50 (SNB-19 CNS) 13.5 µM | GI50 (M14 melanoma) 5.54 µM | GI50 (HOP-62 NSCLC) 17.8 µM | GI50 (K-562 leukemia) 4.18 µM | GI50 (SF-295 CNS) 4.51 µM | GI50 (OVCAR-8 ovarian) 5.18 µM | GI50 (COLO 205 colon) 5.81 µM | GI50 (MDA-MB-435) 3.86 µM | GI50 (CAKI-1 renal) 2.93 µM | GI50 (SN12C renal) 10.9 µM | GI50 (SK-OV-3 ovarian) 15.3 µM | GI50 (NCI/ADR-RES ovarian) 2.7 µM | GI50 (PC-3 prostate) 5.39 µM | GI50 (RXF 393 renal) 3.2 µM | GI50 (A549 NSCLC) 4.22 µM | GI50 (UACC-257 melanoma) 3.7 µM | GI50 (HS 578T breast) 20.4 µM | GI50 (NCI-H460 lung) 4.02 µM | GI50 (HT29 colon) 4.7 µM | GI50 (SF-539 CNS) 13.9 µM | GI50 (OVCAR-4 ovarian) 5.08 µM | GI50 (SF-268 CNS) 11 µM | GI50 (TK-10 renal) 1.22 µM | GI50 (MDA-MB-231 breast) 16.6 µM | GI50 (CCRF-CEM leukemia) 9.41 µM | GI50 (KM12 colon) 3.68 µM | GI50 (HCT-116 colon) 2.95 µM | GI50 (786-0 renal) 9.8 µM | GI50 (DU-145 prostate) 16.6 µM | GI50 (MCF7 breast) 3.14 µM | GI50 (OVCAR-3 ovarian) 4.4 µM | GI50 (HL-60(TB) leukemia) 1.78 µM | GI50 (RPMI-8226 leukemia) 4.91 µM | GI50 (NCI-H226 lung) 3.84 µM | GI50 (SNB-75 CNS) 9.86 µM | GI50 (UO-31 renal) 14.2 µM | GI50 (SR leukemia) 2.89 µM | GI50 (U251 CNS) 18.1 µM
18 µM: TGI (HT29 colon)
21.7 µM: TGI (PC-3 prostate)
12 µM: TGI (NCI-H23 lung)
56.9 µM: TGI (IGROV1 ovarian)

CCC(=O)OC1CCC2C3CCC(=O)OC3C(C)(CCC(=O)O)CC12C (centres undefined)
active: GI50 (CCRF-CEM leukemia) 0.374 µM
4.76 µM: TGI (HOP-92 NSCLC)
15.9 µM: TGI (CAKI-1 renal)
2.68 µM: TGI (SF-295 CNS)
6.28 µM: TGI (MDA-MB-231 breast)
69.1 µM: TGI (COLO 205 colon)
13.2 µM: TGI (MDA-MB-435)
16.2 µM: TGI (IGROV1 ovarian)
19.1 µM: TGI (DU-145 prostate)
10.5 µM: TGI (OVCAR-3 ovarian)
45.3 µM: TGI (U251 CNS)
17.4 µM: TGI (SF-539 CNS)
7.93 µM: TGI (HS 578T breast)
> 100 µM: TGI (OVCAR-5 ovarian) | TGI (SK-MEL-28 melanoma) | TGI (NCI-H23 lung) | TGI (NCI-H522 lung) | TGI (M14 melanoma) | TGI (HOP-62 NSCLC) | TGI (OVCAR-8 ovarian) | TGI (MALME-3M melanoma) | TGI (SK-OV-3 ovarian) | TGI (NCI/ADR-RES ovarian) | TGI (ACHN renal) | TGI (HCT-15 colon) | TGI (PC-3 prostate) | TGI (SK-MEL-5 melanoma) | TGI (SW-620 colon) | TGI (RXF 393 renal) | TGI (A549 NSCLC) | TGI (HCC-2998 colon) | TGI (UACC-257 melanoma) | TGI (NCI-H460 lung) | TGI (EKVX NSCLC) | TGI (HT29 colon) | TGI (OVCAR-4 ovarian) | TGI (SF-268 CNS) | TGI (CCRF-CEM leukemia) | TGI (KM12 colon) | TGI (LOX IMVI melanoma) | TGI (HCT-116 colon) | TGI (786-0 renal) | TGI (SK-MEL-2 melanoma) | TGI (MCF7 breast) | TGI (UACC-62 melanoma) | TGI (SNB-75 CNS) | TGI (UO-31 renal)
inactive: GI50 (IGROV1 ovarian) 2.47 µM | GI50 (T-47D breast) 0.929 µM | GI50 (OVCAR-5 ovarian) 5.6 µM | GI50 (SK-MEL-28 melanoma) 3.81 µM | GI50 (NCI-H23 lung) 3.35 µM | GI50 (NCI-H522 lung) 2.08 µM | GI50 (M14 melanoma) 3.59 µM | GI50 (HOP-62 NSCLC) 7.49 µM | GI50 (SF-295 CNS) 1.16 µM | GI50 (OVCAR-8 ovarian) 3.49 µM | GI50 (MALME-3M melanoma) 2.76 µM | GI50 (COLO 205 colon) 3.48 µM | GI50 (MDA-MB-435) 2.24 µM | GI50 (CAKI-1 renal) 3.22 µM | GI50 (SK-OV-3 ovarian) 2.47 µM | GI50 (HOP-92 NSCLC) 0.997 µM | GI50 (NCI/ADR-RES ovarian) 2.54 µM | GI50 (ACHN renal) 4.74 µM | GI50 (HCT-15 colon) 2.83 µM | GI50 (PC-3 prostate) 2.36 µM | GI50 (SK-MEL-5 melanoma) 3.9 µM | GI50 (SW-620 colon) 2.87 µM | GI50 (RXF 393 renal) 0.617 µM | GI50 (A549 NSCLC) 3.81 µM | GI50 (HCC-2998 colon) 3.53 µM | GI50 (UACC-257 melanoma) 5.73 µM | GI50 (HS 578T breast) 1.63 µM | GI50 (NCI-H460 lung) 2.04 µM | GI50 (EKVX NSCLC) 2.08 µM | GI50 (HT29 colon) 3.86 µM | GI50 (SF-539 CNS) 2.1 µM | GI50 (OVCAR-4 ovarian) 6.61 µM | GI50 (SF-268 CNS) 3.6 µM | GI50 (TK-10 renal) 3.46 µM | GI50 (MDA-MB-231 breast) 1.45 µM | GI50 (KM12 colon) 2.59 µM | GI50 (LOX IMVI melanoma) 3.87 µM | GI50 (HCT-116 colon) 3.62 µM | GI50 (786-0 renal) 5.49 µM | GI50 (DU-145 prostate) 3.59 µM | GI50 (SK-MEL-2 melanoma) 1.86 µM | GI50 (MCF7 breast) 1.61 µM | GI50 (OVCAR-3 ovarian) 2.16 µM | GI50 (UACC-62 melanoma) 3 µM | GI50 (SNB-75 CNS) 2.87 µM | GI50 (UO-31 renal) 0.494 µM | GI50 (U251 CNS) 3.11 µM
6.16 µM: TGI (T-47D breast)
21.9 µM: TGI (TK-10 renal)
